From ChEMBL document CHEMBL4422686, “Optimization of an azetidine series as inhibitors of colony stimulating factor-1 receptor (CSF-1R) Type II to lead to the clinical candidate JTE-952” (Bioorg Med Chem Lett, 2019)

Key:
Conditions in all cases: in vivo
[1] = AUC in Sprague-Dawley rat at 3 mg/kg, po by LC-MS/MS analysis; assay type: ADME, organism-based
[2] = Volume of distribution in Sprague-Dawley rat at 1 mg/kg, iv by LC-MS/MS analysis; assay type: ADME, organism-based
[3] = Mean residence time in Sprague-Dawley rat at 1 mg/kg, iv by LC-MS/MS analysis; assay type: ADME, organism-based
[4] = Volume of distribution in cynomolgus monkey at 1 mg/kg, iv by LC-MS/MS analysis; assay type: ADME, organism-based, Macaca fascicularis
[5] = Oral bioavailability in Sprague-Dawley rat at 3 mg/kg by LC-MS/MS analysis; assay type: ADME, organism-based
[6] = Cmax in Sprague-Dawley rat at 3 mg/kg, po by LC-MS/MS analysis; assay type: ADME, organism-based; design: dose 3 mg/kg, route oral
[7] = Mean residence time in cynomolgus monkey at 1 mg/kg, iv by LC-MS/MS analysis; assay type: ADME, organism-based, Macaca fascicularis

AUC [1] | Vd [2] | MRT [3] | Vd [4] | bioavailability [5] | Cmax [6] | MRT [7] | Structure (SMILES)
1.63 µM·h | 3.46 L/kg | 0.91 h | 0.56 L/kg | 116% | 270 nM | 1.2 h | COc1cc(C2CN(C(=O)c3cc(COCC(CO)(CO)CO)ccn3)C2)ccc1OCc1ccc(C2CC2)cc1
2.22 µM·h | 3.27 L/kg | 1.46 h | 5 L/kg | 85.1% | 490 nM | 7.5 h | COc1cc(C2CN(C(=O)c3cc(COC[C@@H](O)CO)ccn3)C2)ccc1OCc1ccc(C2CC2)cc1
4.15 µM·h | 1.51 L/kg | 1.37 h | 0.76 L/kg | 75.8% | 740 nM | 0.28 h | COc1cc(C2CN(C(=O)c3cc(OC[C@H](O)CO)ccn3)C2)ccc1OCc1ccc(C2CC2)cc1
